{
  "source": "patent US20120251495A1",
  "about": "“PTERIN BASED THERAPIES FOR INFLAMMATORY CONDITIONS” (priority 2008, published 2012)",
  "key": {"[1]": {"system": "MDA-MB-231 human breast tumor xenographs", "experiment": "Antitumor efficacy in nude mice with MDA-MB-231 xenographs, 2nd experiment", "format": "in vivo, athymic nude mice", "method": "In the 2nd experiment, twenty-nine athymic nude, also purchased from Harlan Sprague Dawley, Inc. (Indianapolis, Ind.), were each injected subcutaneously with 10×10^6 MDA-MB-231 cancer cells into the right flank. When tumors reached 3-5 mm in size, the mice were divided into five treatment groups of five each and a control group of four mice. […] All the other mice in the 2nd experiment persisted ≧43 days without complications. Experimental groups were treated by oral gavage once daily with the indicated test suspensions or solutions.\nThe control mice in the 1st experiment were treated with sterile water while the control mice in the 2nd experiment were untreated to evaluate the effect of mouse handling and gavaging upon tumor growth. Daily dosing was for 7 days per week. Animals were restrained but not anesthetized for oral dosing. Tumors were measured twice weekly with calipers and body weights taken twice weekly on the day of tumor measurements. Blood was collected from all animals via cardiac puncture at termination (after 70 to 98 days of treatment) and processed to EDTA plasma for analysis.\nThe MDA-MB-231 human breast tumor cell lines were supplied by SRI International (Menlo Park, Calif.) and propagated using standard in vitro cell expansion methods. Briefly, cells were grown in L-15 media from Gibco (Cat. No. 11415-064) supplemented with 2 mM L-Glutamine and 10% Fetal Bovine Serum (FBS). The cells were cultured in an incubator with 5% CO2, 37.5° C., and 80% humidity. Cells were harvested with 0.25% (w/v) Trypsin-0.03% (w/v) EDTA solution. Cells were prepared for injection by standard methods to appropriate concentrations. Animals were temporarily restrained but not anesthetized for the inoculation of the tumor cells. Animals were subcutaneously injected with the tumor cells in a 100-200 μl volume.\nEach animal was individually tracked for tumor growth by external caliper measurements of protruding tumor. Primary tumor sizes were measured using calipers and an approximate tumor volume calculated using the formula 1/2 (a×b^2), where b was the smaller of two perpendicular diameters.\nFor each group, the mean and standard error of the mean (SEM) of the ratio V/Vo, Relative Tumor Volume (RTV), were plotted as a function of treatment time after inoculation. V0 was the tumor volume at Day 0, when treatment began."}, "plasma cytokines": {"system": "plasma cytokines", "experiment": "Plasma cytokine levels (multiplex and single ELISA kits), 2nd experiment", "format": "in vivo, athymic nude mice", "settings": "for IL-5: limit of detection 3.0; for IFN-γ / IL-4 / IL-12: limit of detection 3.2; for IL-6: limit of detection 3.9; for IL-1β: limit of detection 4.1", "procedure": "Cytokine levels in EDTA plasma from the mice in the 2nd experiment were measured at the UCSD Core Laboratory (San Diego, Calif.) using a multiplex assay kit for IL-1β, IL-2, IL-4, IL-5, IL-10, IL-12, IFN-γ, TNF-α and single ELISA kits for IL-6 and TGF-β1 by R&D Systems. […] For both the 1st and 2nd experiments, those measured cytokine values falling below the limits of detection were set to the higher assay limit for the purposes of the subsequent statistical analyses, and recorded as n.d. (not detectable) in Tables 1 through 3."}, "[2]": {"experiment": "Theoretical body fluid level calculated from dose", "settings": "69 mg/kg ÷ 0.7 L/kg ÷ 454.4 mg/mmol; mouse", "procedure": "DCP at the highest dose tested in mice in this study, 69 mg/kg, yields the following theoretical body fluid level: [DCP]fluid=69 mg/kg÷0.7 L/kg÷454.4 mg/mmol=220 μM."}, "[3]": {"system": "MDA-MB-231 xenograph tumors", "experiment": "Combined analysis of DCP + control mice: Day 42,43 relative tumor volume and DCP/APCP", "format": "in vivo, nude mice", "procedure": "Standard ANOVA models for group effects, curve fitting, and stepwise regression analyses were carried out using SPSS Graduate Pack 15.0 for Windows (2006), with p<0.05 used to determine significance.\nTable 7 gives the plasma cytokine and relative tumor volume Spearman rank order correlations for the 12 DCP+ control mice (Control [n=3; from 1st experiment]; 23 mg/(kg d) DCP [n=5; from 2nd experiment]; and 69 mg/(kg d) DCP [n=4; from 2nd experiment]).\nTo further determine significant causal and correlational linkages among DCP dosage, plasma cytokine changes, and relative tumor volume, the following curve fitting analyses were carried out with the 12 DCP+ control mice. First, plotting DCP versus Day 42,43 Relative Tumor Volume yielded a significant quadratic relationship (FIG. 11). Second, curve fitting each cytokine versus Day 42,43 Relative Tumor Volume found no significant linear relationship and only one significant quadratic relationship, i.e., with IL-12 (p=0.004; FIG. 12). Third, plotting DCP versus IL-12 yielded a weakly significant quadratic relationship (p=0.048; FIG. 13).\nSubstantially more significant analogous plots were generated by first carrying out the Table 8 stepwise regression analysis which derived the DCP antitumor plasma cytokine pattern (DCP/APCP), shown to be a more significant cytokine composite measure than IL-12 taken alone. The Table 8 stepwise regression analysis of the cytokine data from the 12 DCP+ control mice allowed for the calculation of DCP/APCP scores for each mouse. These DCP/APCP scores are plotted versus DCP dosage in […], which illustrates the significant quadratic dose-response relationships of DCP versus the derived plasma DCP/APCP composite measure. From this figure the estimated optimum dosage of DCP for maximum tumor growth inhibition is 42 mg/(kg day), while the estimated optimum dosage for maximum DCP/APCP induction is 44 mg/(kg day)."}, "[4]": {"system": "hepatitis B core antigen (HBcAg)", "experiment": "Liver HBcAg assay in HBV transgenic mice", "format": "in vivo", "settings": "2.3 mg/(kg d)", "procedure": "Experimental design. DCP was administered per os, once daily for 14 days to randomly assigned HBV transgenic mice at 23, 7.3, and 2.3 mg/(kg d). ADV was used as a positive control at 10 mg/(kg d) using the same treatment schedule and vehicle (0.4% CMC). On day 14, mice were euthanized to collect serum and liver samples to perform liver HBV DNA, liver core and serum HBe assays, serum cytokine/chemokine profiles, and IDO metabolite assays.\nLiver HBcAg assay. Liver biopsies were processed for detection of hepatitis B core antigen (HBcAg) (Motley J D, Motter N E, Taro B, Lay M & Fairman J. Efficacy of cationic lipid-DNA complexes (CLDC) on hepatitis B virus in transgenic mice. Antiviral Res 2008; 79:71-79). Three different parameters were obtained from each tissue section. […] The first two parameters were obtained by counting cells surrounding central veins as follows: the total number of cells, the number of cells with stained nuclei, and the number of cells with stained cytoplasms. The identities of the samples were blinded to person counting. The stained nuclei counts or the stained cytoplasm counts were divided by the total cells. Three central vein areas were counted for each slide sample. For the third parameter, a field not in a central vein area was counted for the total number of stained nuclei. One-quarter of the field was counted. Three such fields were counted per liver section. The identity of the samples was blinded to the person reading the slides."}, "[5]": {"system": "indoleamine 2,3-dioxygenase (IDO)", "experiment": "Plasma tryptophan and kynurenine by HPLC (IDO activity), 1st experiment", "format": "in vivo, athymic nude (nu/nu) mice", "settings": "for Kynurenine / Tryptophan / Kyn/Trp: plasma; for Kynurenine / Tryptophan: HPLC; for Kyn/Trp: estimate of IDO activity", "procedure": "Cytokine levels in EDTA plasma from the mice in the 1st experiment were determined by ELISA assay at Alta Analytical Laboratories (San Diego, Calif.) using a LINCOplex Kit (Linco Research). Tryptophan (Trp) and kynurenine (Kyn) concentrations were measured from EDTA plasma samples by high pressure liquid chromatography (HPLC) using 3-nitro-L-tyrosine as the internal standard (Widner et al., 1997). To estimate IDO activity, the kynurenine to tryptophan ratio (Kyn/Trp) was calculated and expressed as μmol kynurenine/mmol tryptophan (Wirleitner, 2003). The values from five mice in the 1st experiment are not included in the summary statistics given in Table 1 for the following reasons. One mouse from each of the four treatment groups was used to test the effects of mega dosing, i.e., with (1:4 mol:mol) calcium pterin at 100 mg/kg/day after Day 60 of treatment, and are excluded. Also excluded was one mouse from the (1:4 mol:mol) calcium pterin (7 mg/kg/day) group which expired suddenly a few days before blood was collected. Cytokine measurements <3.2 pg/ml are reported as n.d. (not detectable) because the standard curves used in the ELISA assays were not calibrated below that level."}, "[6]": {"system": "spontaneous mammary gland tumors", "settings": "C3H/HeN-MTV+ mice; Moheno, 2004; cited from earlier work"}},
  "data": [
    {"compound": "Nc1nc([O-])c2nccnc2n1.Nc1nc([O-])c2nccnc2n1.[Ca+2]", "note": "[DCP, dipterinyl calcium pentahydrate]", "values": [
      {"measurement": "MDA-MB-231 xenograph growth inhibition", "setting": "[1]; (1:2) 25, DCP 23 and 69, calcium chloride dihydrate 4.2 mg/kg/day", "result": "significantly inhibit"},
      {"measurement": "IL-5", "setting": "plasma cytokines; 2nd experiment, 23 mg/kg/d", "result": "20.3 ± 10.2", "unit": "pg/mL"},
      {"measurement": "IFN-γ", "setting": "plasma cytokines; 2nd experiment, 23 mg/kg/d", "result": "15.2 ± 4.9", "unit": "pg/mL"},
      {"measurement": "IL-4", "setting": "plasma cytokines; 2nd experiment, 23 mg/kg/d", "result": "5.7 ± 1.7", "unit": "pg/mL"},
      {"measurement": "IL-12", "setting": "plasma cytokines; 2nd experiment, 23 mg/kg/d", "result": "1141.7 ± 327.1", "unit": "pg/mL"},
      {"measurement": "IL-6", "setting": "plasma cytokines; 2nd experiment, 23 mg/kg/d", "result": "49.6 ± 18.5", "unit": "pg/mL"},
      {"measurement": "IL-1β", "setting": "plasma cytokines; 2nd experiment, 23 mg/kg/d", "result": "6.2 ± .8 pg/mL"},
      {"measurement": "IL-2", "setting": "plasma cytokines; 2nd experiment, 23 mg/kg/d, limit of detection 12.6", "result": "12.7 ± .11 pg/mL"},
      {"measurement": "IL-10", "setting": "plasma cytokines; 2nd experiment, 23 mg/kg/d, limit of detection 24.6", "result": "37.0 ± 12.4", "unit": "pg/mL"},
      {"measurement": "IL-5", "setting": "plasma cytokines; 2nd experiment, 69 mg/kg/d", "result": "24.9 ± 17.0", "unit": "pg/mL"},
      {"measurement": "IFN-γ", "setting": "plasma cytokines; 2nd experiment, 69 mg/kg/d", "result": "29.9 ± 18.0", "unit": "pg/mL"},
      {"measurement": "IL-4", "setting": "plasma cytokines; 2nd experiment, 69 mg/kg/d", "result": "4.0 ± .6 pg/mL"},
      {"measurement": "IL-12", "setting": "plasma cytokines; 2nd experiment, 69 mg/kg/d", "result": "1050.52 ± 238.7", "unit": "pg/mL"},
      {"measurement": "IL-6", "setting": "plasma cytokines; 2nd experiment, 69 mg/kg/d", "result": "37.0 ± 11.3", "unit": "pg/mL"},
      {"measurement": "IL-1β", "setting": "plasma cytokines; 2nd experiment, 69 mg/kg/d", "result": "5.3 ± .7 pg/mL"},
      {"measurement": "TGF-β1", "setting": "plasma cytokines; 2nd experiment, 69 mg/kg/d, limit of detection 31.2", "result": "49.5 ± 18.3", "unit": "pg/mL"},
      {"measurement": "theoretical body fluid level [DCP]fluid", "setting": "[2]", "result": 220, "unit": "µM"},
      {"measurement": "tumor growth inhibition relative to controls (FIG. 9)", "setting": "[3]; 23 mg/(kg day), Day 42,43 relative tumor volume, combined data", "result": "significant tumor growth inhibition"},
      {"measurement": "plasma IL-4 correlated to antitumor response", "setting": "[3]; DCP/APCP", "result": "increased"},
      {"measurement": "plasma IL-6 correlated to antitumor response", "setting": "[3]; DCP/APCP", "result": "decreased"},
      {"measurement": "plasma IL-12 correlated to antitumor response", "setting": "[3]; DCP/APCP", "result": "increased"},
      {"measurement": "dose range in which antitumor response and cytokine pattern are optimized", "setting": "[3]; nude mice with MDA-MB-231 xenograph tumors", "result": "40-46 mg/(kg day)"},
      {"measurement": "estimated optimum dosage for maximum DCP/APCP induction", "setting": "[3]; quadratic fit, FIG. 11", "result": "44 mg/(kg day)"},
      {"measurement": "estimated optimum dosage for maximum tumor growth inhibition", "setting": "[3]; quadratic fit, FIG. 11", "result": "42 mg/(kg day)"},
      {"measurement": "HBcAg Stained nuclei/total, Female levels (mean ± SEM)", "setting": "[4]; female", "result": "0.36 ± 0.046"},
      {"measurement": "HBcAg Stained nuclei/total, Male levels (mean ± SEM)", "setting": "[4]; male", "result": "0.51 ± 0.041"}
    ]},
    {"compound": "(1:4 mol:mol) calcium pterin [CaPterin]", "values": [
      {"measurement": "T/C", "setting": "[1]; 21 mg/kg/day, after 43 days", "result": 37, "unit": "%"},
      {"measurement": "IL-5", "setting": "plasma cytokines; 2nd experiment, 21 mg/kg/d", "result": "8.2 ± 1.4", "unit": "pg/mL"},
      {"measurement": "IFN-γ", "setting": "plasma cytokines; 2nd experiment, 21 mg/kg/d", "result": "6.2 ± 2.4", "unit": "pg/mL"},
      {"measurement": "IL-12", "setting": "plasma cytokines; 2nd experiment, 21 mg/kg/d", "result": "721.6 ± 19.1", "unit": "pg/mL"},
      {"measurement": "IL-1β", "setting": "plasma cytokines; 2nd experiment, 21 mg/kg/d", "result": "5.0 ± .7 pg/mL"},
      {"measurement": "IL-6", "setting": "plasma cytokines; 2nd experiment, 21 mg/kg/d, plasma at sacrifice", "result": "30.3 ± 10.2", "unit": "pg/mL"},
      {"measurement": "increases in plasma IL-12 (FIG. 10)", "setting": "plasma cytokines; at the dosages tested", "result": "lower, non-significant increases"},
      {"measurement": "Kynurenine", "setting": "[5]; 7 mg/kg/day", "result": "1.2 ± 0.2", "unit": "µM"},
      {"measurement": "Tryptophan", "setting": "[5]; 7 mg/kg/day", "result": "87.9 ± 14.6", "unit": "µM"},
      {"measurement": "Kyn/Trp", "setting": "[5]; 7 mg/kg/day", "result": "14.1 ± 0.2", "unit": "μmol/mmol"},
      {"measurement": "Kynurenine", "setting": "[5]; 21 mg/kg/day", "result": "1.8 ± 0.3", "unit": "µM"},
      {"measurement": "Tryptophan", "setting": "[5]; 21 mg/kg/day", "result": "106.5 ± 7.8", "unit": "µM"},
      {"measurement": "Kyn/Trp", "setting": "[5]; 21 mg/kg/day", "result": "17.5 ± 3.8", "unit": "μmol/mmol"},
      {"measurement": "plasma kynurenine response to dosage (ACIP model)", "setting": "[5]; stepwise regression", "result": "increase"},
      {"measurement": "activity against spontaneous mammary gland tumors", "setting": "[6]", "result": "highly significant activity"}
    ]}
  ]
}
